Measured values reported in patent publication US7838511B2, “Compositions and methods for treating, preventing and/or ameliorating cancers, the onset of cancers or the symptoms of cancers” (The Board of Regents of the University of Texas System, priority 2003, dated 2010).

Columns and labels:
[1] = tested on: MCF-7 breast cancer cells; test: MCF-7 DNA synthesis (thymidine incorporation into cellular DNA); assay type: cell-based; conditions: 5 mM, mean ± SEM
Protocol: Studies were further performed to determine the mechanism by which ASA and PC-ASA reduced cell number. MCF-7 cells were again grown in the absence or presence of ASA and PC-ASA, and cell proliferation was assessed by measurement of titriated thymidine incorporation into cellular DNA.

[2] = tested on: SW-480 colon cancer cell line; test: SW-480 colon cancer cell DNA synthesis; assay type: cell-based; conditions: mean ± SEM
Protocol: (§1) PC-NSAIDs were also tested on another type of cancer, a colon cancer cell line, SW-480.

[3] = tested on: SW-480 colon cancer cell line; test: SW-480 colon cancer cell number; assay type: cell-based; conditions: mean ± SEM
Protocol: as §1

[4] = tested on: MCF-7 breast cancer cells; test: MCF-7 breast cancer cell growth / cell number (MTT assay); assay type: cell-based; conditions: for Cell number (% control): mean ± SEM
Protocol: Using MCF-7 breast cancer cells grown in culture, a dose-response to aspirin (1.25 to 20 mM) was performed initially. After 48 hours of exposure to the various aspirin (acetyl salicylic acid, ASA) concentrations, mitochondrial 3-(4,5-dimethylthiazol-2-yl)-2,5-diphenyltetrazolium bromide (MTT) assays were performed. The MTT assay produces a measure of cell number and is used to monitor growth or inhibition of growth of the MCF-F breast cancer cells, i.e., measure the relative growth inhibitor activity of the compositions.
To test the relative growth inhibitor activity of phospholipid associated aspirin (PC-ASA) preparations, PC-ASA preparations were made having ASA concentrations that gave no more than 50% inhibition of growth (e.g., 2.5 and 5 mM) as shown in FIG. 2. In this example and in all subsequent examples, cell growth was assessed by measuring mitochondrial 3-(4,5-dimethylthiazol-2-yl)-2,5-diphenyltetrazolium bromide (MTT) activity. Those concentration of ASA were chosen so that any PC effects could be readily observed. After the preparation of the PC-ASA preparation, MCF-7 breast cancer cells were exposed for 48 hours to either ASA or a PC-ASA having the same ASA concentration.
MCF-7 breast cancer cells were grown in culture and exposed to aspirin (acetyl salicylic acid, ASA) and PC-ASA at equimolar concentrations. An assay was performed to estimate cell number.

[5] = tested on: Leiomyosarcoma of the bladder; test: Bladder cancer (leiomyosarcoma) in a cat, ultrasonographic follow-up; assay type: in vivo, domestic cat; conditions: assessed by ultrasound
Protocol: To confirm that the PC-NSAIDs also have anti-cancer activity in vivo, a study has been performed on a domestic cat. As summarized in Table 3, the animal was diagnosed in December of 2003 with Leiomyosarcoma of the bladder, a particularly aggressive form of cancer.
The cat was treated surgically for resection of the tumor and was then placed on standard Vincristine chemotherapy for three weeks. […] Eventually, the tumor began to grow again and a treatment of lecithin combined with an NSAID, piroxicam, was begun. […] The cat is continuing to be treated with PC-piroxicam as of this filing.

[6] = tested on: MCF-7 cells; test: Lactate dehydrogenase (LDH) release (necrosis) of MCF-7 cells; assay type: cell-based; conditions: 0.6 mM, 5 hours; FIG. 4
Protocol: The growth inhibitor activity of the PC-ASA preparations on MCF-7 cells could be through increased apoptosis or necrosis or inhibition of cell proliferation. To differentiate between the first two possibilities, the effect of the PC-ASA preparations on release of the cytosolic enzyme lactate dehydrogenase (LDH) as a measure of necrosis were performed. For this study, MCF-7 cells were exposed to 2.5 and 5 mM ASA or PC-ASA preparations for 48 hours, as before. The media was collected and assayed for LDH activity (the assay is a kit available from Sigma Chemical Co., St. Louis, Mo.). To act as a positive control, some cells were exposed to a bile acid, 0.6 mM sodium deoxycholate (DOC), for 5 hours before LDH assay. […] Yet the ASA and PC-ASA preparations clearly reduce the number of MCF-7 cells at these concentrations. The most likely explanation for these findings is that the NSAIDs are inducing apoptosis rather than necrosis. This possibility is consistent with reports in the literature (see, e.g., Xiaojun L, Xie W, Reed D, Bradshaw W S, Simmons D L. Nonsteroidal antiinflammatory drugs cause apoptosis and induce cyclooxygenases in chicken embryo fibroblasts. Proc Natl Acad Sci USA 1995; 92:7961-7965.). Another possibility is that the PC-NSAID act by inhibiting cell proliferation.

CC(=O)Oc1ccccc1C(=O)O [ASA, acetyl salicylic acid]
DNA synthesis (% control) [1]: 85 ± 8 % Control
DNA synthesis (% control) ([2]; 5 mM): 102 ± 4 % control
Cell number (% control) ([3]; 5 mM): 68 ± 3 % control
inhibition of growth ([4]; ASA 2.5 and 5 mM, MTT, FIG. 2): no more than 50%
Cell number (% control) ([4]; MCF-7, 5 mM): 55 ± 3 % Control
ASA concentration with inhibitor effect on growth of the cells ([4]; MTT assay, 48 hours exposure, dose-response 1.25 to 20 mM, FIG. 2): ≥ 2.5 mM

CC(C)Cc1ccc(C(C)C(=O)O)cc1 (stereo not drawn) [IBU, ibuprofen]
DNA synthesis (% control) ([2]; 1 mM): 79 ± 1 % control
Cell number (% control) ([3]; 1 mM): 81 ± 2 % control

CC[C@]1(O)C[C@H]2CN(CCc3c([nH]c4ccccc34)[C@@](C(=O)OC)(c3cc4c(cc3OC)N(C=O)[C@H]3[C@@](O)(C(=O)OC)[C@H](OC(C)=O)[C@]5(CC)C=CCN6CC[C@]43[C@@H]65)C2)C1 [Vincristine]
effect on tumor growth (in words) [5]: did not stop the remaining tumor growth

phosphatidylcholine [PC]
DNA synthesis (% control) [1]: 41 ± 1 % Control
DNA synthesis (% control) ([2]; 1 mM): 97 ± 5 % control
DNA synthesis (% control) ([2]; 5 mM): 65 ± 4 % control
Cell number (% control) ([3]; 1 mM): 106 ± 13 % control
Cell number (% control) ([3]; 5 mM): 106 ± 7 % control
inhibiting the growth of the breast cancer cells (in words) ([4]; 2.5 and 5 mM, 48 hours, MTT, FIG. 3): did not adversely affect the growth of the cells
inhibiting the growth of the breast cancer cells (in words, Table 1) ([4]; MCF-7, 5 mM, equimolar): not effective at inhibiting the growth of the cells
Cell number (% control) ([4]; MCF-7, 5 mM): 114 ± 3 % Control

sodium deoxycholate [DOC]
LDH release (necrosis), positive control [6]: caused the release of cellular LDH
